Measured values from US11865105B2, “Sphingosine pathway modulating compounds for the treatment of cancers” (Enzo Biochem, Inc., priority 2017, dated 2024).

How the values were obtained:
Jurkat cells = assay: Cell viability effects (FIG. 21); format: cell-based, human; settings: Jurkat cells without IL-2; 5 μM of each agent
Hep 3B cells = assay: Apoptosis/necrosis assay (flow cytometry, GFP Certified Apoptosis/Necrosis detection kit); format: cell-based, human; settings: 24 hours, SK1-I 10, 20, 40 μM, ozanimod 10, 20, 40 μM, ABC294640 10, 20, 40 μM
Experimental: (§1) Apoptosis/necrosis assays evaluating the effect of different concentrations of each of ozanimod, ABC294640 and SK1-I on the four human hepatocellular carcinoma cell lines, Hep G2, Hep 3B, Huh 7 and PLC-PRF5 were also performed.
(§2) The protocol used for the apoptosis assays was: • Plated cells in 6-well plates and incubated at 37° C. overnight. • Prepared […], 20 μM, and 40 μM. • SK1-I: 10 μM, 20 μM, and 40 μM. • Control: 0.2% DMSO. • Aspirated the medium from the 6-well plates and added test compound concentrations in media or 0.2% DMSO control in media. Incubated at 37° C. for 24 hours. • Collected and processed the cells following the flow cytometry protocol of the GFP Certified® Apoptosis/Necrosis detection kit from Enzo Life Sciences, Inc. (product no. ENZ-51002; Farmingdale, NY, USA).
(§3) FIGS. 5-16 present graphs plotting the data from these 24-hour apoptosis assays for the different concentrations of compounds and no-drug control for the various cell lines. Channel FL2 picks up the apoptosis signal and channel FL3 picks up the necrosis signal. Data points in Quadrant 3 (Q3) in the graphs corresponds to cells undergoing apoptosis (cells positive for the apoptosis detection reagent of the assay). Data points in Quadrant 2 (Q2) in the graphs corresponds to cells that are positive for the apoptosis detection reagent and positive for the necrosis detection reagent of the assay (indicative of late-stage apoptosis).

Hep G2 cells = assay: as above; format: cell-based, human; settings: 24 hours, SK1-I 10, 20, 40 μM, ozanimod 10, 20, 40 μM, ABC294640 10, 20, 40 μM
Experimental: as §1, §2, §3

Huh7 cells = assay: as above; format: cell-based, human; settings: 24 hours, SK1-I 10, 20, 40 μM, ozanimod 5, 10, 20 μM, ABC294640 10, 20, 40 μM
Experimental: as §1
(§4) The protocol used for the apoptosis assays was: • Plated cells in 6-well plates and incubated at 37° C. overnight. • Prepared concentrations of test compound and control compound DMSO in media. • Ozanimod: 5 μM, 10 μM, and 20 μM. • ABC294640: 10 μM, 20 μM, and 40 μM. • SK1-I: 10 μM, 20 μM, and 40 μM. • Control: 0.2% DMSO. • Aspirated the medium from the 6-well plates and added test compound concentrations in media or 0.2% DMSO control in media. Incubated at 37° C. for 24 hours. • Collected and processed the cells following the flow cytometry protocol of the GFP Certified® Apoptosis/Necrosis detection kit from Enzo Life Sciences, Inc. (product no. ENZ-51002; Farmingdale, NY, USA).
as §3

PLC-PRF5 cells = assay: as above; format: cell-based, human; settings: 24 hours, SK1-I 10, 20, 40 μM, ozanimod 5, 10, 20 μM, ABC294640 10, 20, 40 μM
Experimental: as §1, §4, §3

[1] = test system: Jurkat cells (human T-cell leukemia cell line); assay: Apoptosis assay; format: cell-based; settings: SK1-I 10, 20 μM, ozanimod 5, 10 μM
Experimental: as §4, §3

[2] = test system: primary human hepatocytes; assay: Apoptosis assay on normal (non-cancerous) primary human hepatocytes; format: cell-based; settings: 24 hours; SK1-I 10, 20, 40 μM; ozanimod 2.5, 5, 10 μM; any concentration tested
Experimental: In still further experiments, the effects of SK1-I and ozanimod on normal (non-cancerous) primary human hepatocytes were investigated. Fresh human hepatocytes in a 12-well plate (HUF12) were obtained from Triangle Research Labs (Durham, NC, USA; part of Lonza Group) and handled according to the supplier's protocol. The shipping medium was aspirated from each well and replaced with 1 ml per well of warm Hepatocyte Maintenance Medium. The plate was then placed in a 5% CO2 incubator at 37° C. and the hepatocytes were allowed to acclimate overnight. The Hepatocyte Maintenance Medium was replaced before treatment with drug or no-drug control, and the hepatocytes were treated with 0 μM (no-drug control), 10 μM, 20 μM, or 40 μM SK1-I or 0 μM, 2.5 μM, 5 μM, or 10 μM ozanimod for 24 hours under incubation. The cells were then harvested and analyzed using the GFP Certified® Apoptosis/Necrosis detection kit. The results are shown in FIGS. 19A-D for SK1-I and FIGS. 20A-D for ozanimod as follows.

[3] = test system: human hepatocellular carcinoma cell lines, Hep G2, Huh 7, and PLC-PRF5; assay: MTT cell viability assay (48 hours); format: cell-based; settings: Hep G2, Huh 7, PLC-PRF5
Experimental: The following MTT assay protocol was followed. • Prepared stock solutions: 50 mM ozanimod, 50 mM ABC294640, 10 mM SK1-I in DMSO. • Plated 20000 cells in 160 μl medium per well in 96-well plates for each cell line and incubated at 37° C. overnight. • Prepared compound serial dilutions: for ozanimod and ABC294640: dilute stock 50 mM 1:50 in medium to 1000 μM; for SK1-I, dilute stock 10 mM 1:50 in medium to […] them make serial 1:1.8 fold serial dilution to the titration. For negative control, diluted DMSO 1:50 to medium. • Added 40 μl negative control and serially titrated compounds to 160 μl of cells for each cell line. Performed in triplicate for each cell line. • Incubated at 37° C. for 72 hours. • Performed assay using Vybrant MTT Cell Proliferation Assay kit (V-13154) (Molecular Probes) from Thermo Fisher Scientific (Waltham, MA USA).
48-hour treatment MTT assays were also performed as follows.

Structure (SMILES) | cell viability (Jurkat cells) | induction of apoptosis (Hep 3B cells) | induction of apoptosis (Hep G2 cells) | induction of apoptosis (Huh7 cells) | induction of apoptosis (PLC-PRF5 cells) | induction of apoptosis [1] | induction of apoptosis of primary human hepatocytes [2] | killing hepatocellular carcinoma cells, compared with PF-543 [3]
CC(C)Oc1ccc(-c2nc(-c3cccc4c3CC[C@@H]4NCCO)no2)cc1C#N [ozanimod, 5-[3-[(1S)-1-(2-hydroxyethylamino)-2,3-dihydro-1H-inden-4-yl]-1,2,4-oxadiazol-5-yl]-2-propan-2-yloxybenzonitrile] | strongly decreases viability | strongly induced apoptosis | strongly induced apoptosis | strongly induced apoptosis | strongly induced apoptosis | strongly induced apoptosis | did not induce apoptosis | 
CCCCCc1ccc(/C=C/[C@H](O)[C@@H](CO)NC)cc1 [SK1-I, (E,2R,3S)-2-(methylamino)-5-(4-pentylphenyl)pent-4-ene-1,3-diol] |  | strongly induced apoptosis | strongly induced apoptosis | strongly induced apoptosis | strongly induced apoptosis | strongly induced apoptosis | did not induce apoptosis | more effective at killing hepatocellular carcinoma cells than PF-543
O=C(NCc1ccncc1)C12CC3C[C@H](C1)CC(c1ccc(Cl)cc1)(C3)C2 [ABC294640, (7 S)-3-(4-chlorophenyl)-N-(pyridin-4-ylmethyl)adamantane-1-carboxamide] |  | did not substantially induce apoptosis | failed to induce apoptosis | failed to induce apoptosis | did not substantially induce apoptosis |  |  | 
